Earlier results on 2 compounds are cited in patent US20140044685A1, “NUTRITIONAL COMPOSITIONS HAVING ALPHA-HICA AND CITRULLINE” (NESTEC S.A., priority 2011, published 2014).

In data set [1] the test system is intestinal mammalian target of rapamycin (mTOR). The note with it: piglet stressed with LPS; leading to increased protein synthesis and anti-inflammatory responses.
For data set [2] the following is noted: piglet stressed with LPS.
For data set [3] the following is noted: malnourished aged animals.

On to `O=C(O)CCC(=O)C(=O)O` [AKG, α-ketoglutarate], for which, in data set [1], the “phosphorylation of intestinal mammalian target of rapamycin (mTOR)” value is “increased”. For the same compound, in data set [2], the crypt depth result is “reduced” and the villous height result is on record as “increased”.

In the case of `NC(=O)NCCC[C@H](N)C(=O)O` [Citrulline, citrulline], the anabolic effect result in data set [3] is “anabolic effect”.
